Data reported in patent publication US9695155B2, “Herbicidal substituted pyrimidinyloxy benzene compounds” (E. I. DU PONT DE NEMOURS AND COMPANY, priority 2013, dated 2017).

What was measured:
barnyardgrass [1] = experiment: Test A postemergence; type: in vivo, Echinochloa crus-galli
Procedure, shortened: (§1)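 Pre- and postemergence greenhouse screen. Soil: loam + sand. Spray carrier: solvent mixture, non-phytotoxic, with surfactant. Post timing at 1–2 leaves, height 2–10 cm. Readout: visual injury on a 0–100 scale roughly 10 days after application, untreated plants as reference.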

sedge, umbrella = experiment: Test B flooded paddy test; type: in vivo, Cyperus difformis; settings: Flood, 250 g ai/ha; 0 to 100 scale where 0 is no effect and 100 is complete control
Procedure, shortened: (§2)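 Seedlings are raised to two leaves, flooded to a depth of 3 cm and dosed by adding the compound to the floodwater. Water level is kept constant, and plants are scored visually versus controls 13–15 days later (0 = no effect, 100 = complete control).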

barnyardgrass [2] = experiment: Test B flooded paddy test; type: in vivo, Echinochloa crus-galli; settings: Flood, 250 g ai/ha; 0 to 100 scale where 0 is no effect and 100 is complete control
Procedure, shortened: as §2

corn [3] = experiment: Test C preemergence; type: in vivo, Zea mays; settings: for Corn plant response rating: preemergence; for Plant response rating, Corn: Preemergence, 31 g ai/ha, scale 0 to 100, 0 no effect, 100 complete control
Procedure, shortened: (§3)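 Seeds are planted in blended loam soil and sand and treated preemergence, while seedlings in a peat moss/vermiculite medium receive postemergence sprays at 2 to 18 cm height. All plants stay in the greenhouse for 13 to 15 days before visual comparison with controls on a 0–100 scale.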

giant foxtail = experiment: Test C preemergence; type: in vivo, Setaria faberii; settings: for Foxtail, Giant plant response rating: preemergence; for Plant response rating, Foxtail, Giant: Preemergence, 31 g ai/ha, scale 0 to 100, 0 no effect, 100 complete control
Procedure, shortened: as §3

Italian ryegrass = experiment: Test C postemergence; type: in vivo, Lolium multiflorum; settings: for Plant response rating, Ryegrass, Italian: scale 0 to 100 (0 no effect, 100 complete control)
Procedure, shortened: as §3

johnsongrass = experiment: Test C postemergence; type: in vivo, Sorghum halepense
Procedure, shortened: as §3

pigweed = experiment: Test C postemergence; type: in vivo, Amaranthus retroflexus; settings: for Plant response rating, Pigweed: scale 0 to 100 (0 no effect, 100 complete control)
Procedure, shortened: as §3

barnyardgrass [4] = experiment: Test C postemergence; type: in vivo, Echinochloa crus-galli
Excerpt: (§4) Seeds of plant species selected from blackgrass (Alopecurus myosuroides), Italian ryegrass (Lolium multiflorum), wheat, winter (winter wheat, Triticum aestivum), galium (catchweed bedstraw, Galium aparine), corn (Zea mays), large (Lg) crabgrass (Digitaria sanguinalis), giant foxtail (Setaria faberii), johnsongrass (Sorghum halepense), lambsquarters (Chenopodium album), morningglory (Ipomoea coccinea), yellow nutsedge (Cyperus esculentus), pigweed (Amaranthus retroflexus), ragweed (common ragweed, Ambrosia elatior), soybean (Glycine max), barnyardgrass (Echinochloa crus-galli), oilseed rape (Brassica napus), waterhemp (common waterhemp, Amaranthus rudis), kochia (Kochia scoparia), wild oat (Avena fatua), surinam grass (Brachiaria decumbens), foxtail, green (green foxtail, Setaria viridis), goosegrass (Eleusine indica), bromegrass, downy (downy bromegrass, Bromus tectorum), nightshade (eastern black nightshade, Solanum ptycanthum), cocklebur (common cocklebur, Xanthium strumarium), cupgrass, woolly (woolly cupgrass, Eriochloa villosa), bermudagrass (Cynodon dactylon), sunflower, (common oilseed sunflower, Helianthus annuus), Russian thistle (Salsola kali), and velvetleaf (Abutilon theophrasti) were planted into a blend of loam soil and sand and treated preemergence with test chemicals formulated in a non-phytotoxic solvent mixture which included a surfactant.
(§5) At the same time, plants selected from these crop and weed species and also barley, winter (winter barley, Hordeum vulgare), windgrass (Apera spica-venti), chickweed (common chickweed, Stellaria media), deadnettle (henbit deadnettle, Lamium amplexicaule), and canarygrass (littleseed canarygrass, Phalaris minor) were planted in pots containing Redi-Earth® planting medium (Scotts Company, 14111 Scottslawn Road, Marysville, Ohio 43041) comprising spaghnum peat moss, vermiculite, wetting agent and starter nutrients and treated with postemergence applications of test chemicals formulated in the same manner. Plants ranged in height from 2 to 18 cm (1- to 4-leaf stage) for postemergence treatments. Treated plants and controls were maintained in a greenhouse for 13 to 15 days, after which time all species were compared to controls and visually evaluated. Plant response ratings, summarized in Table C, are based on a scale of 0 to 100 where 0 is no effect and 100 is complete control. A dash (-) response means no test result.

waterhemp = experiment: Test C postemergence; type: in vivo, Amaranthus rudis; settings: for Plant response rating, Waterhemp: scale 0 to 100 (0 no effect, 100 complete control)
Excerpt: as §4, §5

wild oat = experiment: Test C postemergence; type: in vivo, Avena fatua; settings: for Plant response rating, Oat, Wild: scale 0 to 100 (0 no effect, 100 complete control)
Procedure, shortened: as §3

velvetleaf = experiment: Test C postemergence; type: in vivo, Abutilon theophrasti; settings: for Plant response rating, Velvetleaf: scale 0 to 100 (0 no effect, 100 complete control)
Procedure, shortened: as §3

morningglory = experiment: Test A preemergence; type: in vivo, Ipomoea spp.; settings: 1000 g ai/ha, 0 to 100 scale, 0 no effect, 100 complete control, approx. 10 days
Procedure, shortened: as §1

corn [5] = experiment: Test A preemergence; type: in vivo, Zea mays; settings: 1000 g ai/ha, 0 to 100 scale, 0 no effect, 100 complete control
Procedure, shortened: as §1

[6] = 16 g ai/ha, scale 0 to 100 (0 no effect, 100 complete control)
[7] = 62 g ai/ha, scale 0 (no effect) to 100 (complete control)
[8] = 125 g ai/ha, scale 0 (no effect) to 100 (complete control)
[9] = Postemergence, 31 g ai/ha, 13 to 15 days
[10] = 16 g ai/ha, postemergence, visual rating, scale 0 to 100 (0 no effect, 100 complete control), 13 to 15 days
[11] = Postemergence, 31 g ai/ha, scale 0 to 100 (0 no effect, 100 complete control), 13 to 15 days
[12] = Postemergence, 62 g ai/ha, scale 0 to 100 (0 no effect, 100 complete control)
[13] = 16 g ai/ha, postemergence, 0 is no effect, 100 is complete control
[14] = 125 g ai/ha, postemergence, visual rating
[15] = 125 g ai/ha, postemergence, visual rating, scale 0 to 100 (0 no effect, 100 complete control)

| SMILES | Plant response rating, Sedge, Umbrella (sedge, umbrella) | Plant response rating, Barnyardgrass (barnyardgrass [2]) | Corn plant response rating (corn [3]; [6]) | Corn plant response rating (corn [3]; [7]) | Corn plant response rating (corn [3]; [8]) | Plant response rating, Corn (corn [3]) | Foxtail, Giant plant response rating (giant foxtail; [6]) | Foxtail, Giant plant response rating (giant foxtail; [7]) | Foxtail, Giant plant response rating (giant foxtail; [8]) | Plant response rating, Foxtail, Giant (giant foxtail) | Plant response rating, Ryegrass, Italian (Italian ryegrass; Postemergence, 62 g ai/ha) | Plant response rating, Johnsongrass (johnsongrass; [12]) | Plant response rating, Pigweed (pigweed; Postemergence, 62 g ai/ha) | Plant response rating, Barnyardgrass (barnyardgrass [4]; [11]) | Plant response rating, Barnyardgrass (barnyardgrass [4]; [12]) | Plant response rating, Waterhemp (waterhemp; Postemergence, 62 g ai/ha) | Plant response rating, Oat, Wild (wild oat; Postemergence, 62 g ai/ha) | Plant response rating, Velvetleaf (velvetleaf; Postemergence, 62 g ai/ha) | further results |
| --- | --- | --- | --- | --- | --- | --- | --- | --- | --- | --- | --- | --- | --- | --- | --- | --- | --- | --- | --- |
| CCOc1cn(-c2c(Br)cccc2Oc2ncc(Cl)cn2)nn1 [Compound 84] | 30 | 0 | 0 | 0 | 5 | 0 | 5 | 98 | 100 | 55 | 0 | 0 | 80 | 0 | 0 | 70 | 5 | 70 | Plant response rating, Barnyardgrass (barnyardgrass [1]; 125 g ai/ha, 0 to 100 scale where 0 is no effect and 100 is complete control): 70; Plant response rating, Barnyardgrass (barnyardgrass [1]; 500 g ai/ha, 0 to 100 scale, 0 no effect, 100 complete control): 100; Plant response rating (0 to 100), Ryegrass, Italian (Italian ryegrass; 125 g ai/ha, postemergence): 0; Plant response rating, Ryegrass, Italian (Italian ryegrass; [9]): 0; Johnsongrass plant response rating (johnsongrass; [10]): 0; Plant response rating (0 to 100), Johnsongrass (johnsongrass; 125 g ai/ha, postemergence): 0; Plant response rating, Johnsongrass (johnsongrass; [11]): 0; Plant response rating (0 to 100), Pigweed (pigweed; 125 g ai/ha, postemergence): 85; Plant response rating, Pigweed (pigweed; [9]): 50; Barnyardgrass plant response rating (barnyardgrass [4]; [10]): 0; Plant response rating (0 to 100), Barnyardgrass (barnyardgrass [4]; 125 g ai/ha, postemergence): 15; Plant response rating (0 to 100), Waterhemp (waterhemp; 125 g ai/ha, postemergence): 70; Plant response rating, Waterhemp (waterhemp; [9]): 50; Plant response rating (0 to 100), Oat, Wild (wild oat; 125 g ai/ha, postemergence): 15; Plant response rating, Oat, Wild (wild oat; [9]): 0; Plant response rating (0 to 100), Velvetleaf (velvetleaf; 125 g ai/ha, postemergence): 90; Plant response rating, Velvetleaf (velvetleaf; [9]): 45 |
| N#Cc1cn(-c2c(Br)cccc2Oc2ncc(Cl)cn2)nn1 [Compound 116] | 30 | 0 | 0 | 5 | 25 | 0 | 0 | 85 | 95 | 10 | 5 | 0 | 90 | 5 | 5 | 80 | 5 | 60 | Morningglory plant response rating (morningglory): 100; Plant response rating, Corn (corn [5]): 30; Plant response rating, Barnyardgrass (barnyardgrass [1]; 1000 g ai/ha, 0 to 100 scale, 0 no effect, 100 complete control): 90; Plant response rating (0 to 100), Ryegrass, Italian (Italian ryegrass; [13]): 5; Plant response rating, Ryegrass, Italian (Italian ryegrass; [14]): 5; Plant response rating (0 to 100), Johnsongrass (johnsongrass; [13]): 0; Plant response rating, Johnsongrass (johnsongrass; [15]): 15; Plant response rating (0 to 100), Pigweed (pigweed; [13]): 80; Plant response rating, Pigweed (pigweed; [14]): 95; Plant response rating (0 to 100), Barnyardgrass (barnyardgrass [4]; [13]): 0; Plant response rating, Barnyardgrass (barnyardgrass [4]; [15]): 20; Plant response rating (0 to 100), Waterhemp (waterhemp; [13]): 65; Plant response rating, Waterhemp (waterhemp; [14]): 95; Plant response rating (0 to 100), Oat, Wild (wild oat; [13]): 5; Plant response rating, Oat, Wild (wild oat; [14]): 15; Plant response rating (0 to 100), Velvetleaf (velvetleaf; [13]): 25; Plant response rating, Velvetleaf (velvetleaf; [14]): 85 |
